Results taken from patent US8889696B2, “Substituted pyrido[2,3-d]pyrimidin-7(8H)-ones and therapeutic uses thereof” (Temple University—Of The Commonwealth System Of Higher …, priority 2009, dated 2014).

Columns and labels:
HFL (human fibroblast) = assay: Normal cell killing, HFL; format: cell-based; details: concentration 5-fold higher than a concentration that resulted in tumor cell killing
Procedure: (§1) The effect of the compounds of the invention on tumor cells was determined by the assay described by Latham et al., Oncogene 12:827-837 (1996). Tumor cells K562 (chronic myelogenous leukemia; leukemia cell line +ve for Bcr-Abl) or DU145 (prostate cancer) were plated in 12-well dishes at a cell density of 2.5×10^4 cells well. The plated cells were treated 24 hours later with a compound of the invention dissolved in DMSO at multiple concentrations ranging from 0.01 μM to 100 μM. The plates were examined 96 hours later under an inverted microscope, Olympus CK-2 using an 10× objective, and compound activity was noted by physical observation. When necessary, the total number of viable cells was determined by trypsinizing the wells and counting the number of viable cells, as determined by trypan blue exclusion, using a hemacytometer.
(§2) Utilizing a similar procedure, the compounds of Example 12 and Example 40 were tested on two normal cell lines: HFL (human fibroblast) and hMSC (human marrow stem cell).

[1] = system: K562 (chronic myelogenous leukemia); assay: Effect on tumor cell lines (Latham assay), K562; format: cell-based; details: Homo sapiens; K562 cells, examined 96 hours after treatment; read-out: Potencies (IC50) K 562
Procedure: (§3) The plated cells were treated 24 hours later with a compound of the invention dissolved in DMSO at multiple concentrations ranging from 0.01 μM to 100 μM. […] When necessary, the total number of viable cells was determined by trypsinizing the wells and counting the number of viable cells, as determined by trypan blue exclusion, using a hemacytometer.

[2] = system: hMSC (human marrow stem cell); assay: Normal cell killing, hMSC; format: cell-based; details: concentration 5-fold higher than a concentration that resulted in tumor cell killing
Procedure: as §1, §2

DU145 (prostate cancer) = assay: Effect on tumor cell lines (Latham assay), DU145; format: cell-based; details: Homo sapiens, DU-145; DU145 cells, examined 96 hours after treatment; read-out: Potencies (IC50) DU 145
Procedure: as §3

FLT3 (D835Y) = FLT3 (D835Y) (Homo sapiens (Human), UniProt P36888, D835Y); assay: Kinase profiling; format: biochemical; details: 10 μM ATP
U2OS osteosarcoma cells [3] = assay: Induction of apoptosis in U2OS cells (Caspase Glo, Cell Titer Blue); format: cell-based; details: 24 hours, FIG. 3
Procedure: U2OS cells were treated with increasing concentrations of the compound for 24 hours. Cell viability was measured by incubating cells with Cell Titer Blue reagent at 37° C. for 3 hours under 5% CO2. Thereafter the cells were incubated with Caspase Glo reagent for 1 hour at room temperature to assay induction of Caspase 3/7 activity.
Cell viability was measured by incubating cells with Cell Titer Blue reagent (Promega) at 37° C. for 3 hours under 5% CO2. Thereafter the cells were incubated with Caspase Glo reagent (Promega) for 1 hour at room temperature to assay induction of Caspase 3/7 activity.

FGFR3 = FGFR3 (Homo sapiens (Human), UniProt P22607); assay: Kinase profiling; format: biochemical; details: 10 μM ATP
RSK1 = RSK1 (Homo sapiens (Human), UniProt Q15418); assay: biochemical
tumor cells = assay: Apoptosis induction in tumor cells; format: cell-based
recombinant Plk1 = recombinant Plk1 (Homo sapiens (Human), UniProt P53350)
SK-MEL-28 = assay: Viable cell count GI50 (Table 4); format: cell-based; details: SK-MEL-28, Melanoma; 96 h continuous treatment, trypan blue
Procedure: (§4) Cells (1×10^5) were plated into 6-well dishes and 24 h later test compound was added at five different concentrations over a 2 log dilution (1-100 μM). The total number of viable cells was determined after 96 h of continuous treatment by staining with trypan blue and counting the number of non-staining cells (viable) remaining in each well using a hemacytometer. The percentage of viable cells remaining was calculated as follows: # viable cells (compound treated)/# viable cells (DMSO treated)*100.

GRANTA-519 = assay: Viable cell count GI50 (Table 4); format: cell-based; details: GRANTA-519, Mantle Cell Lymphoma; 96 h continuous treatment, trypan blue
Procedure: as §4

BT474 = assay: Viable cell count GI50 (Table 4); format: cell-based; details: BT474, Breast (Erbb2+); 96 h continuous treatment, trypan blue
Procedure: as §4

RAJI = assay: Viable cell count GI50 (Table 4); format: cell-based; details: B-Cell, 96 h continuous treatment, trypan blue
Procedure: as §4

HELA = assay: Viable cell count GI50 (Table 4); format: cell-based; details: Cervical, 96 h continuous treatment, trypan blue
Procedure: as §4

U2OS = assay: Viable cell count GI50 (Table 4); format: cell-based; details: Osteosarcoma, 96 h continuous treatment, trypan blue
Procedure: as §4

U87 = assay: Viable cell count GI50 (Table 4); format: cell-based; details: U87, Glioblastoma; 96 h continuous treatment, trypan blue
Procedure: as §4

CD-1 female mice = assay: Toxicity study in mice; format: in vivo
Procedure: . DMSO was used as a placebo. Three CD-1 female mice were used per group. Drugs were administered intraperitoneally at 100 mg/kg. Viability, signs of toxicity and body weight were monitored over the next 7 days. […]. […] Comparative body weight studies could not be carried out for this compound due to the early death of animals. These observations agree with the known toxicity of BI-2536. […]. Following this treatment, 100% survival for >10 days after injection was observed. […]

PLK2 [4] = target: T1, PLK2 (Homo sapiens (Human), UniProt Q9NYY3); assay: Kinase profiling; format: biochemical; details: 10 μM ATP
U2OS osteosarcoma cells [5] = assay: Spindle staining of U2OS cells (anti-alpha tubulin, fluorescent microscopy); format: cell-based; details: 1 uM, 24 hrs
Procedure: The cells were fixed in 4% paraformaldehyde and stained with anti-alpha tubulin antibodies conjugated with FITC followed by 5 μg/ml […] staining. The coverslips were visualized by fluorescent microscopy using an Olympus microscope at 100× magnification equipped with the Insight digital camera system.

PLK2 [6] = target: T1, PLK2; assay: Plk kinase inhibition assay (32P-ATP, casein); format: biochemical; details: 5 μM ATP, FIG. 1
Procedure: (§5) Ten ng of recombinant Plk1, Plk2, Plk3 or Plk4 kinase were incubated with the indicated concentrations of compound for 30 minutes at room temperature. Kinase reactions were started by the addition of substrate mix (5 μM ATP, 10 μCi γ^32P-ATP, 1 μg α-casein, 10 mM MgCl2) for 15 minutes at 30° C. Reactions were stopped by 3% phosphoric acid, spotted on PE30 filtermat, washed, dried and subjected to scintillation counting. Data is plotted (after background subtraction) using GraphPad Prism4 software as a non-linear regression plot with variable slope to obtain IC50 values.
as §5, with “Kinase” for “Ten ng of recombinant Plk1, Plk2, Plk3 or Plk4 kinase were incubated with the indicated concentrations of compound for 30 minutes at room temperature. Kinase”

recombinant Plk3 = recombinant Plk3 (Homo sapiens (Human), UniProt Q9H4B4); assay: Plk kinase inhibition assay (32P-ATP, casein); format: biochemical; details: 5 μM ATP, FIG. 1
Procedure: as §5
as §5, with “Kinase” for “Ten ng of recombinant Plk1, Plk2, Plk3 or Plk4 kinase were incubated with the indicated concentrations of compound for 30 minutes at room temperature. Kinase”

recombinant Plk4 = recombinant Plk4 (Homo sapiens (Human), UniProt O00444); assay: Plk kinase inhibition assay (32P-ATP, casein); format: biochemical
Procedure: as §5
as §5, with “Kinase” for “Ten ng of recombinant Plk1, Plk2, Plk3 or Plk4 kinase were incubated with the indicated concentrations of compound for 30 minutes at room temperature. Kinase”

HFL = assay: Viable cell count GI50 (Table 4); format: cell-based, human; details: Normal, 96 h continuous treatment, trypan blue
Procedure: as §4

PLK2 [7] = target: T1, PLK2; assay: Affinity analysis with biotinylated compound, streptavidin pull-down from U2OS lysates, anti-Plk2 Western blot; format: binding; details: FIG. 2
Procedure: Increasing concentrations of a biotinylated form of the compound were incubated with U2OS lysates. Streptavidin-conjugated agarose beads were utilized to pull down the biotinylated compound in complex with its interacting proteins.
Increasing concentrations of a biotinylated form of the compound were incubated for two hours with U2OS lysates (0.6 mg/ml) derived from the U2OS cell line. Streptavidin-conjugated agarose beads were utilized to pull down the biotinylated compound in complex with its interacting proteins. Pre-cleared streptavidin beads were added to each reaction mixture and incubated overnight at 4° C. The beads were washed and blotted with SDS-PAGE loading buffer and run on a 10% acrylamide denaturing gel. […] Western blotting was performed using an anti-Plk2 antibody.

WNK2 = WNK2 (Homo sapiens (Human), UniProt Q9Y3S1); assay: Kinase profiling; format: biochemical; details: 10 μM ATP
PBK/TOPK = PBK/TOPK (Homo sapiens (Human), UniProt Q96KB5); assay: Kinase profiling; format: biochemical; details: 10 μM ATP
[8] = 100 mg/kg intraperitoneally, monitored over 7 days

T1 sequence (Q9NYY3 whole entry): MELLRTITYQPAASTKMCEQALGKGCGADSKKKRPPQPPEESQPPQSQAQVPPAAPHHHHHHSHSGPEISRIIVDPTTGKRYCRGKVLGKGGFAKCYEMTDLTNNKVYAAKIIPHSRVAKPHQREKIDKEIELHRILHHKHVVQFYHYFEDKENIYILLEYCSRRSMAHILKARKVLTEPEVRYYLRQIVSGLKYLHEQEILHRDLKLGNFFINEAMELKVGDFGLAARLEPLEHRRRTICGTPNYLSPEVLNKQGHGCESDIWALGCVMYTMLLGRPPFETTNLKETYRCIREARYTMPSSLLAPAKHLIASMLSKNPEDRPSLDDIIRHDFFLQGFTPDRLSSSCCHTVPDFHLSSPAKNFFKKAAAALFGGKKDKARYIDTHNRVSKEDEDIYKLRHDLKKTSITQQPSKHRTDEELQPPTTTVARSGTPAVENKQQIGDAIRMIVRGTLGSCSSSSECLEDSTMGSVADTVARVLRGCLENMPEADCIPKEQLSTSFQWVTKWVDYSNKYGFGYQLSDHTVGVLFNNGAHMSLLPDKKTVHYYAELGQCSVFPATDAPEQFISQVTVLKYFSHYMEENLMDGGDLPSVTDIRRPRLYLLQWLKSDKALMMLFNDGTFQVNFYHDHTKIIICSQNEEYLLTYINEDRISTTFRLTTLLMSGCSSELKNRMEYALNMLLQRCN
Chain of recombinant Plk3 (Q9H4B4 whole entry): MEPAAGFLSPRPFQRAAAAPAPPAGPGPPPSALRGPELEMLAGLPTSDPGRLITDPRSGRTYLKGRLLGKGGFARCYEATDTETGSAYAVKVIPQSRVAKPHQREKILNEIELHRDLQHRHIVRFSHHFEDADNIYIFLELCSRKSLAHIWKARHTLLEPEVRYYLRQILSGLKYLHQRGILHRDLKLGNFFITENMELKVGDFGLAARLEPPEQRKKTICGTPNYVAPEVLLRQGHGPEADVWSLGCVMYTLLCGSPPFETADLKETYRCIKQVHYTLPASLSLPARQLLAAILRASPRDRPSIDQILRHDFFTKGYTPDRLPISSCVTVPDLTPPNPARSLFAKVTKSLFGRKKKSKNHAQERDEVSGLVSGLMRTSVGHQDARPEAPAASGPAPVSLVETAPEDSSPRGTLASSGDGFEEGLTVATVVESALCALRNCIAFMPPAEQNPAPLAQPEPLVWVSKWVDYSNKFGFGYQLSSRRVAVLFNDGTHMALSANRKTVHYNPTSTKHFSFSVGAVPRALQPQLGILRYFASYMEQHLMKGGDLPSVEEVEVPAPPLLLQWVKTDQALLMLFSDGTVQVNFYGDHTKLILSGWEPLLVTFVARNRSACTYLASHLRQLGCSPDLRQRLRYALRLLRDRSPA
Chain of recombinant Plk1 (P53350 whole entry): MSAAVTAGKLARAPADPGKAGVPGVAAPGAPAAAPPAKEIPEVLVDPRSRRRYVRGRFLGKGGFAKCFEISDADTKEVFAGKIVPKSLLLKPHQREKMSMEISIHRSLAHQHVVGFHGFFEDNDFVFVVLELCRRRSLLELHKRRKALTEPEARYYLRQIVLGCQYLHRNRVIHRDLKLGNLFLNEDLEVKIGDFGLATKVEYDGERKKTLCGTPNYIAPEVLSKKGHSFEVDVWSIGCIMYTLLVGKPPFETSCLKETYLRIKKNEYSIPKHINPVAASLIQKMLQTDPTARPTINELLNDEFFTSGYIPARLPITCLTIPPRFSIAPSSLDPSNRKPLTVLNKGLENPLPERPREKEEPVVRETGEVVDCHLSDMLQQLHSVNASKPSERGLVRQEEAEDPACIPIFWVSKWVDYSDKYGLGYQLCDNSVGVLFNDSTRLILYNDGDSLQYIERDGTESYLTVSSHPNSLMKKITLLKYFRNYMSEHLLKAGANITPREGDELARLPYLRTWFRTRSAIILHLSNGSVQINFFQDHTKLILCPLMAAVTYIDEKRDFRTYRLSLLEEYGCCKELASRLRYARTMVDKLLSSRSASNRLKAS
Chain of recombinant Plk4 (O00444 whole entry): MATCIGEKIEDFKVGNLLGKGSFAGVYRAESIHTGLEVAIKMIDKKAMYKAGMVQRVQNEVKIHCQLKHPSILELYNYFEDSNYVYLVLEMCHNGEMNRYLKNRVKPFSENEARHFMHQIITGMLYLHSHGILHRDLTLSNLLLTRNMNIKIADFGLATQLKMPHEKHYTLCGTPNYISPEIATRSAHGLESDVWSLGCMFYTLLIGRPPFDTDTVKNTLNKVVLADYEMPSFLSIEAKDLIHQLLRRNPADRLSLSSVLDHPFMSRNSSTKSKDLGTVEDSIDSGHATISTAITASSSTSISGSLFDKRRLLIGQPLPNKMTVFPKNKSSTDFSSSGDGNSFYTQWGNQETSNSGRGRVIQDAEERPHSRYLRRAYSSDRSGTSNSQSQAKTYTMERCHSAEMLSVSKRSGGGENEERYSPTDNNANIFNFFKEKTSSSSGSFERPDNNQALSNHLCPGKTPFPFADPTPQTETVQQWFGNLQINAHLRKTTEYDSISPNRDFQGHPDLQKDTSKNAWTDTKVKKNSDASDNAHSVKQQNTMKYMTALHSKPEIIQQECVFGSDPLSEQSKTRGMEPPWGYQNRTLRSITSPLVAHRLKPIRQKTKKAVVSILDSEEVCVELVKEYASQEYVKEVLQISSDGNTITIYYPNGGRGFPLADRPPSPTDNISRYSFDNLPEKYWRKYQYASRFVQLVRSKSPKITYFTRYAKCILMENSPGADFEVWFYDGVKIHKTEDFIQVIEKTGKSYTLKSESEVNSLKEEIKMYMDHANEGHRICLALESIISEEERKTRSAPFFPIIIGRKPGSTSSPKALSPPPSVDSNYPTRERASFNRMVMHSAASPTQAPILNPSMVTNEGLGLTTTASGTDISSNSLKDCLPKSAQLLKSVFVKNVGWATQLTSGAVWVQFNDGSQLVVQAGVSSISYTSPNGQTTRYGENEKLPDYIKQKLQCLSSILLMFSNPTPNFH
Chain of RSK1 (Q15418 whole entry): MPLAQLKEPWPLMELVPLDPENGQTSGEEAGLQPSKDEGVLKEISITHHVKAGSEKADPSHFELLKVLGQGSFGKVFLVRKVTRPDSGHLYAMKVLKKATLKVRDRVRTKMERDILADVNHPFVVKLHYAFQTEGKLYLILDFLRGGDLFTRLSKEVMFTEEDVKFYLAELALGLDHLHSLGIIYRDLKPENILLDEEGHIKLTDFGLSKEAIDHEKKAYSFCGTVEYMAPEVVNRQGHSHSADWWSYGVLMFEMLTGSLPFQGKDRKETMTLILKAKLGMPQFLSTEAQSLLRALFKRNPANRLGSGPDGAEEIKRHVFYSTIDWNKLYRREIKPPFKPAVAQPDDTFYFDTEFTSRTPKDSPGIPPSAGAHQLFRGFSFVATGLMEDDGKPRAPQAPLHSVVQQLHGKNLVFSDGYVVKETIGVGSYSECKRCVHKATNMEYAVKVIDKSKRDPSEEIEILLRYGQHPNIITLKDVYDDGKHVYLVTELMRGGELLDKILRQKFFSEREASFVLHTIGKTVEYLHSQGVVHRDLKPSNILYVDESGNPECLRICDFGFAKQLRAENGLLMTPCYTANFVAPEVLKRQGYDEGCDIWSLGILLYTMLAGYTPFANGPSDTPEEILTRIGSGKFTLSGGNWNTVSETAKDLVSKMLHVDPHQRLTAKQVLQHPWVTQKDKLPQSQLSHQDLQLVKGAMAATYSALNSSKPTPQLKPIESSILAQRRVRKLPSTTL
Chain of PBK/TOPK (Q96KB5 whole entry): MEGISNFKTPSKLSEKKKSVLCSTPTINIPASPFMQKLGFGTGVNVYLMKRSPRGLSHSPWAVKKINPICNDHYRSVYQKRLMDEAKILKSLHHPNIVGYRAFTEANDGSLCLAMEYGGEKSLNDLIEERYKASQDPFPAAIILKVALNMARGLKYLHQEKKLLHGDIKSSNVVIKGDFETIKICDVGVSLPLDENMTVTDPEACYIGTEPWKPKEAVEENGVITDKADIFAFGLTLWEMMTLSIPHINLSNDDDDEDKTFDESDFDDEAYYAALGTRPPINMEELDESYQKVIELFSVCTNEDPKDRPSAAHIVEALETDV
Chain of FGFR3 (P22607 23-806): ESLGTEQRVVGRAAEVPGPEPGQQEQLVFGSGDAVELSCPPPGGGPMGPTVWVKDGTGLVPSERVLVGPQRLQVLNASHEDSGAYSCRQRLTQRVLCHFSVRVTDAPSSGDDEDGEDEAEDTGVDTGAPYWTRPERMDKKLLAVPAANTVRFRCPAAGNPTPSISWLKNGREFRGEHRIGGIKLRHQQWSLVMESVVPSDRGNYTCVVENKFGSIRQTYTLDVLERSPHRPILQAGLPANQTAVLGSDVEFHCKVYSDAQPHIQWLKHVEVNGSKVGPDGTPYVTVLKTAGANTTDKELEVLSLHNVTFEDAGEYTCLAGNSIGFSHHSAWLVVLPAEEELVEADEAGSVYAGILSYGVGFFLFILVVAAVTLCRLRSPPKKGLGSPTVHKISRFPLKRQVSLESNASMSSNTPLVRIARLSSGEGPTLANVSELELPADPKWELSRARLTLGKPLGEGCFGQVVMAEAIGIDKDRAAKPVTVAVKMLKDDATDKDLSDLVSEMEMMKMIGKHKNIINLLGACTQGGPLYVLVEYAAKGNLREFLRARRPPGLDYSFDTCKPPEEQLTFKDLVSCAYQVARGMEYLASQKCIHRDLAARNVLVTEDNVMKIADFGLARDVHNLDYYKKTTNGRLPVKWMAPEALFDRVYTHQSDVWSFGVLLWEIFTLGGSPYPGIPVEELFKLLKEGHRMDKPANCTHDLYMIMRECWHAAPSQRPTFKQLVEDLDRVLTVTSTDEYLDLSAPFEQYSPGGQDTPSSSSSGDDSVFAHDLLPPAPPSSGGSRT

Cn1c(=O)c(S(=O)(=O)c2ccc(F)cc2)cc2cnc(Nc3cnc4[nH]ccc4c3)nc21 [Example 12, 2-(1H-pyrrolo[2,3-b]pyridin-5-ylamino)-6-(4-fluorophenylsulfonyl)-8-methylpyrido[2,3-d]pyrimidin-7(8H)-one]
killing of normal cells (HFL (human fibroblast)): did not kill the normal cells
IC50 [1]: < 1000 nM
killing of normal cells [2]: did not kill the normal cells
melting point: 274 to 280 °C
IC50 (DU145 (prostate cancer)): < 1000 nM

Cn1c(=O)c(S(=O)(=O)c2ccc(F)cc2F)cc2cnc(Nc3ccc4[nH]ccc4c3)nc21 [Example 39, 2-(1H-indol-5-ylamino)-6-(2,4-difluorophenylsulfonyl)-8-methylpyrido[2,3-d]pyrimidin-7(8H)-one]
IC50 (FLT3 (D835Y)): 8850 nM
cell viability (U2OS osteosarcoma cells [3]; Cell Titer Blue): dose-dependent decrease in cell viability
induction of apoptosis (U2OS osteosarcoma cells [3]): induces apoptosis of U2OS osteosarcoma cells in a dose-dependent fashion
IC50 (FGFR3): 9000 nM
IC50 (RSK1): 4250 nM
concentration inducing apoptosis in tumor cells (tumor cells): approximately 100 nM
inhibitory activity against PLK-1 (recombinant Plk1): little or no inhibitory activity
GI50 (SK-MEL-28): 200 nM
GI50 (GRANTA-519): 40 nM
GI50 (BT474): 100 nM
GI50 (RAJI): 50 nM
GI50 (HELA): 50 nM
GI50 (U2OS): 50 nM
GI50 (U87): 200 nM
signs of toxicity (CD-1 female mice; [8]): No signs of toxicity
survival of mice (CD-1 female mice; [8]): 100%
weight loss (CD-1 female mice; [8]): No weight loss
survival of mice (CD-1 female mice; 200 mg/kg, for >10 days after injection): 100%
IC50 (PLK2 [4]): 201 nM
treated cells mitotically arrested with multipolar spindles (U2OS osteosarcoma cells [5]): greater than 95%
inhibitory activity against PLK-2 (PLK2 [6]): potent inhibitor
inhibitory activity against PLK-3 (recombinant Plk3): little or no inhibitory activity
inhibitory activity against PLK-4 (recombinant Plk4): little or no inhibitory activity
GI50 (HFL): > 5000 nM
competition of Plk2 / compound-biotin interaction by free compound (PLK2 [7]): readily competed out

Staurosporine
IC50 (WNK2): 8090 nM
IC50 (PBK/TOPK): 433 nM

CC[C@@H]1C(=O)N(C)c2cnc(Nc3ccc(C(=O)NC4CCN(C)CC4)cc3OC)nc2N1C1CCCC1 [BI-2536, reference compound]
death of mice (CD-1 female mice; female, CD-1, mouse, in vivo, 7 days): two mice died within 24 hours while the third mouse died within 72 hours

Cn1c(=O)c(S(=O)(=O)c2ccc(F)cc2F)cc2cnc(Nc3ccc4[nH]ncc4c3)nc21 [Example 40, 2-(1H-indazol-5-ylamino)-6-(2,4-difluorophenylsulfonyl)-8-methylpyrido[2,3-d]pyrimidin-7(8H)-one]
killing of normal cells (HFL (human fibroblast)): did not kill the normal cells
IC50 [1]: 10000 to 25000 nM
killing of normal cells [2]: did not kill the normal cells
IC50 (DU145 (prostate cancer)): 10000 to 25000 nM

COC[C@H]1OC(=O)c2coc3c2[C@@]1(C)C1=C(C3=O)[C@@H]2CCC(=O)[C@@]2(C)C[C@H]1OC(C)=O [Wortmanin, wortmanin, reference compound]
inhibitory activity against PLK-1 (recombinant Plk1): nanomolar inhibitory activity
inhibitory activity against PLK-2 (PLK2 [6]): nanomolar inhibitory activity
inhibitory activity against PLK-3 (recombinant Plk3): nanomolar inhibitory activity

CC(=O)N1CCN(c2ncc3cc(S(=O)(=O)c4ccc(Cl)cc4)c(=O)n(C)c3n2)CC1 [Example 8, 6-(4-chlorophenylsulfonyl)-2-(4-acetylpiperazin-1-yl)-8-methylpyrido[2,3-d]pyrimidin-7(8H)-one]
IC50 [1]: 50000 to 100000 nM
melting point: 264 to 268 °C
IC50 (DU145 (prostate cancer)): 50000 to 100000 nM

CCCn1c(=O)c(S(=O)(=O)c2ccccc2)cc2cnc(Nc3ccc4cc[nH]c4c3)nc21 [Example 44, 2-(1H-indol-6-ylamino)-6-(phenylsulfonyl)-8-propylpyrido[2,3-d]pyrimidin-7(8H)-one]
IC50 [1]: 1000 to 10000 nM
melting point: 272 to 273 °C
IC50 (DU145 (prostate cancer)): 1000 to 10000 nM

Cn1c(=O)c(S(=O)(=O)c2ccccc2)cc2cnc(Nc3ccc4[nH]ccc4c3)nc21 [Example 21, 2-(1H-indol-5-ylamino)-8-methyl-6-(phenylsulfonyl)pyrido[2,3-d]pyrimidin-7(8H)-one]
IC50 [1]: < 1000 nM
melting point: 340 to 344 °C
IC50 (DU145 (prostate cancer)): 1000 to 10000 nM
